Laboratory results from US20240018145A1, “[…]-DEPENDENT EN[…] TREATING OR […]” (priority 2020, published 2024).
pEC50: −log10 of the molar value. Read-outs that look alike come from different tables or passages of the source.

System: FLU A (PR/8/34)
Assay: Flu A Neuraminidase Antiviral Assay
Format: cell-based

SMILES | pEC50 (MDCK, 48 h) | pEC50
CN1C(=O)c2c(O)c(=O)ccn2N2C1CCC1OCc3ccccc3C12C (centres unmarked) [Compound 148, 7-hydroxy-5,12a-dimethyl-2a,3,4,4a,5,12a-hexahydro-1H-isochromeno[3′,4′:5,6]pyrido[1,2-b]pyrido[2,1-f][1,2,4]triazine-6,8-dione] | 7.42 | –
CN1C(=O)c2c(O)c(=O)ccn2N2C1/C(=C/c1ccccc1)C[C@@H](O)[C@@]2(C)c1ccccc1 (stereo partly drawn) [Compound 149, (1R,2R)-4-((E)-benzylidene)-2,7-dihydroxy-1,5-dimethyl-1-phenyl-1,2,3,4,4a,5-hexahydrodipyrido[1,2-b:2′,1′-f][1,2,4]triazine-6,8-dione] | < 6.09 | –
CN1C(=O)c2c(O)c(=O)ccn2N2C1CC[C@H]1CCc3ccccc3[C@H]12 (stereo partly drawn) [Compound 150, Cis-16-hydroxy-2-methyl-2,2a,3,4,4a,5,6,10b-octahydrobenzo[h]pyrido[1′,2′:1,6][1,2,4]triazino[2,3-a]quinoline-1,15-dione] | 7.16 | –
CN1C(=O)c2c(O)c(=O)ccn2N2C1CC[C@H](OCC=C(F)F)[C@@]2(C)c1ccccc1 (some centres unmarked) [Compound 151] | < 6.09 | –
CCOC1CCC2N(C)C(=O)c3c(O)c(=O)ccn3N2C1c1ccccc1 (centres unmarked) [Compound 152A, 2-ethoxy-7-hydroxy-5-methyl-1-phenyl-1,2,3,4,4a,5-hexahydrodipyrido[1,2-b:2′,1′-f][1,2,4]triazine-6,8-dione] | – | 5.37
CCOC1CCC2N(C)C(=O)c3c(O)c(=O)ccn3N2C1c1ccccc1 (centres unmarked) [Compound 152B, 2-ethoxy-7-hydroxy-5-methyl-1-phenyl-1,2,3,4,4a,5-hexahydrodipyrido[1,2-b:2′,1′-f][1,2,4]triazine-6,8-dione] | – | 7.44
CN1C(=O)c2c(O)c(=O)ccn2N2[C@H](c3ccccc3)[C@@H](OCCCCC#N)CC[C@@H]12 [Compound 154, 5-(((1R,2S,4aS)-7-hydroxy-5-methyl-6,8-dioxo-1-phenyl-1,2,3,4,4a,5,6,8-octahydrodipyrido[1,2-b:2′,1′-f][1,2,4]triazin-2-yl)oxy)pentanenitrile] | < 6.09 | –
CC(C)O[C@H]1CC[C@H]2N(C)C(=O)c3c(O)c(=O)ccn3N2[C@@H]1c1ccccc1 [Compound 155, (1R,2S,4aS)-7-hydroxy-2-isopropoxy-5-methyl-1-phenyl-1,2,3,4,4a,5-hexahydrodipyrido[1,2-b:2′,1′-f][1,2,4]triazine-6,8-dione] | 6.73 | –
CC(C)O[C@@H]1CC[C@H]2N(C)C(=O)c3c(O)c(=O)ccn3N2[C@@H]1c1ccccc1 [Compound 156, (1R,2R,4aS)-7-hydroxy-2-isopropoxy-5-methyl-1-phenyl-1,2,3,4,4a,5-hexahydrodipyrido[1,2-b:2′,1′-f][1,2,4]triazine-6,8-dione] | 7.42 | –
CN1C(=O)c2c(O)c(=O)ccn2N2[C@H](c3ccccc3)[C@H](OCc3ccc(F)c(F)c3)CC[C@@H]12 [Compound 157, (1R,2R,4aS)-2-((3,4-difluorobenzyl)oxy)-7-hydroxy-5-methyl-1-phenyl-1,2,3,4,4a,5-hexahydrodipyrido[1,2-b:2′,1′-f][1,2,4]triazine-6,8-dione] | 6.47 | –
CN1C(=O)c2c(O)c(=O)ccn2N2[C@H](c3ccccc3)[C@H](OCC3CCCC3)CC[C@@H]12 [Compound 158, (1R,2R,4aS)-2-(cyclopentylmethoxy)-7-hydroxy-5-methyl-1-phenyl-1,2,3,4,4a,5-hexahydrodipyrido[1,2-b:2′,1′-f][1,2,4]triazine-6,8-dione] | 6.99 | –
CN1C(=O)c2c(O)c(=O)ccn2N2[C@H](c3ccccc3)[C@H](OCC3(C#N)CCC3)CC[C@@H]12 [Compound 159, 1-((((1R,2R,4aS)-7-hydroxy-5-methyl-6,8-dioxo-1-phenyl-1,2,3,4,4a,5,6,8-octahydrodipyrido[1,2-b:2′,1′-f][1,2,4]triazin-2-yl)oxy)methyl)cyclobutane-1-carbonitrile] | 6.68 | –
CN1C(=O)c2c(O)c(=O)ccn2N2[C@H](c3ccccc3)[C@H](OCC3CCC3)CC[C@@H]12 [Compound 160, (1R,2R,4aS)-2-(cyclobutylmethoxy)-7-hydroxy-5-methyl-1-phenyl-1,2,3,4,4a,5-hexahydrodipyrido[1,2-b:2′,1′-f][1,2,4]triazine-6,8-dione] | 7.74 | –
CC(C)CCO[C@@H]1CC[C@H]2N(C)C(=O)c3c(O)c(=O)ccn3N2[C@@H]1c1ccccc1 [Compound 161, (1R,2R,4aS)-7-hydroxy-2-(isopentyloxy)-5-methyl-1-phenyl-1,2,3,4,4a,5-hexahydrodipyrido[1,2-b:2′,1′-f][1,2,4]triazine-6,8-dione] | 6.92 | –
CN1C(=O)c2c(O)c(=O)ccn2N2[C@H](c3ccccc3)[C@H](OCCF)CC[C@@H]12 [Compound 162, (1R,2R,4aS)-2-(2-fluoroethoxy)-7-hydroxy-5-methyl-1-phenyl-1,2,3,4,4a,5-hexahydrodipyrido[1,2-b:2′,1′-f][1,2,4]triazine-6,8-dione] | 6.71 | –
COCCCO[C@@H]1CC[C@H]2N(C)C(=O)c3c(O)c(=O)ccn3N2[C@@H]1c1ccccc1 [Compound 163, (1R,2R,4aS)-7-hydroxy-2-(3-methoxypropoxy)-5-methyl-1-phenyl-1,2,3,4,4a,5-hexahydrodipyrido[1,2-b:2′,1′-f][1,2,4]triazine-6,8-dione] | 6.57 | –
COC1(c2ccccc2)CCCC2C1n1ccc(=O)c(O)c1C(=O)N2C (centres unmarked) [Compound 167, 7-hydroxy-1-methoxy-5-methyl-1-phenyl-1,3,4,4a,5,11a-hexahydro-2H-pyrido[1,2-a]quinoxaline-6,8-dione] | 6.96 | –
